Experimental data taken from PubChem BioAssay (NCI).
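Growth conditions: 96-well plates. Treatment: test compound, 48 hours, 5 concentrations. Analysis: linear interpolation between bracketing concentrations; unreached endpoints set to highest concentration. The concentration for 50% growth inhibition is given as GI50. At the TGI there is no net growth.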

Experiments:
Test in all cases: NCI anticancer screen, dose series, 48 h
[1] = system: SNB-19 CNS
[2] = system: NCI/ADR-RES ovarian
[3] = system: IGROV1 ovarian
[4] = system: A549 NSCLC
[5] = system: NCI-H226 lung
[6] = system: COLO 205 colon
[7] = system: OVCAR-4 ovarian
[8] = system: SK-MEL-28 melanoma
[9] = system: MALME-3M melanoma
[10] = system: SF-539 CNS
[11] = system: SF-295 CNS
[12] = system: UACC-257 melanoma

| SMILES | TGI [1] | TGI [2] | TGI [3] | TGI [4] | TGI [5] | TGI [6] | TGI [7] | TGI [8] | TGI [9] | TGI [10] | TGI [11] | TGI [12] | GI50 [2] | GI50 [3] | GI50 [4] | GI50 [6] | GI50 [7] | GI50 [8] | GI50 [11] | GI50 [12] |
| --- | --- | --- | --- | --- | --- | --- | --- | --- | --- | --- | --- | --- | --- | --- | --- | --- | --- | --- | --- | --- |
| Clc1nc(Cl)c(Cl)c(Cl)n1 | 38.8 µM | 59.4 µM | 38.7 µM | 40.5 µM | 42.8 µM | 24.1 µM | 46.8 µM | 41.3 µM | 35.9 µM | 47.9 µM | 36.9 µM | 31.1 µM | – | – | – | – | – | – | – | – |
| Cc1cc(O)c2c(c1O)C(=O)C13C(=C2O)C(=O)C2C(O)C1C1C(O)C3C(=O)C3=C(O)c4c(O)cc(C)c(O)c4C(=O)C321 (stereo not drawn) | – | 12.2 µM | 2.06 µM | 1.08 µM | 0.879 µM | 0.112 µM | 7.24 µM | 0.59 µM | 0.327 µM | 0.278 µM | 0.311 µM | 3.46 µM | – | – | – | – | – | – | – | – |
| CCOC(=O)c1sc2nc(SC)nc3c2c1NC(=O)CN3c1cccc(F)c1 | 47.9 µM | – | > 100 µM | 28 µM | 31.7 µM | > 100 µM | 42 µM | 22.9 µM | > 100 µM | 15.7 µM | 40.2 µM | > 100 µM | – | – | – | – | – | – | – | – |
| CCN(CC)CCCOC(=O)/C=C/c1c(C)[nH]c(=O)[nH]c1=O | > 625 µM | > 625 µM | > 625 µM | > 625 µM | > 625 µM | > 625 µM | > 394 µM | > 625 µM | > 625 µM | > 625 µM | > 625 µM | > 625 µM | – | – | – | – | – | – | – | – |
| O=C(NCCCCCCNC(=O)n1cc(F)c(=O)[nH]c1=O)NCCCOCCOCCCNC(=O)C(O)C(O)C(O)C(O)CO (stereo not drawn) | > 2.5 µM | > 2.5 µM | > 2.5 µM | > 2.5 µM | > 2.5 µM | > 2.5 µM | > 2.5 µM | > 2.5 µM | > 2.5 µM | > 2.5 µM | > 2.5 µM | > 2.5 µM | – | – | – | – | – | – | – | – |
| C=C1C[C@@H](O)C[C@@]2(C)C[C@@H]3OC(=O)C(=C)[C@@H]3C[C@H]12 | 26.4 µM | 28.4 µM | 28.8 µM | 81 µM | 37.7 µM | 3.02 µM | 31.4 µM | 14 µM | 13.4 µM | 23.1 µM | 54.6 µM | 15.9 µM | – | – | – | – | – | – | – | – |
| Cc1c2c(cc3c1[nH]c1ccccc13)C=NCC2 | 45.8 µM | 63.3 µM | 49.5 µM | 61.6 µM | 50.2 µM | 22.4 µM | 53 µM | 16.8 µM | 11.7 µM | 11.9 µM | 27.1 µM | 19.6 µM | – | – | – | – | – | – | – | – |
| CC(=O)NCCC1CN(C(=O)/C=C\C#C[Si](C)(C)C)c2ccccc21 (stereo not drawn) | 93.7 µM | 54.6 µM | 30.8 µM | > 100 µM | 46 µM | > 100 µM | 63.3 µM | > 100 µM | 49.4 µM | 73.8 µM | > 100 µM | 9.27 µM | – | – | – | – | – | – | – | – |
| O=C(Nc1c[nH]c(=O)[nH]c1=O)C(Cl)Cl | > 100 µM | > 100 µM | > 100 µM | > 100 µM | > 100 µM | > 100 µM | > 100 µM | > 100 µM | > 100 µM | > 100 µM | > 100 µM | > 100 µM | – | – | – | – | – | – | – | – |
| C/C(=N\NS(=O)(=O)c1ccccc1)c1ccccc1 | > 100 µM | > 100 µM | > 100 µM | > 100 µM | > 100 µM | > 100 µM | > 100 µM | > 100 µM | > 100 µM | > 100 µM | > 100 µM | > 100 µM | – | – | – | – | – | – | – | – |
| O=C1CC(=O)c2c(O)cc(O)c(c2O)-c2c(ccc(O)c2O)C2=CC(=O)c3c(O)cc(O)c(c3O2)-c2c1ccc(O)c2O (tested in a mixture with another compound) | > 50 µM | > 50 µM | > 50 µM | > 50 µM | > 50 µM | > 50 µM | > 50 µM | > 50 µM | > 50 µM | > 50 µM | > 50 µM | > 50 µM | – | – | – | – | – | – | – | – |
| O=C(CC/C=C(/CS(=O)(=O)c1ccccc1)S(=O)(=O)c1ccccc1)c1ccccc1 | > 100 µM | – | > 100 µM | > 100 µM | > 100 µM | – | > 100 µM | > 100 µM | – | > 100 µM | > 100 µM | > 100 µM | – | – | – | – | – | – | – | – |
| CC(=O)OCC1OC(n2cc(F)c(=O)[nH]c2=O)C(N)C(OC(C)=O)C1OC(C)=O (stereo not drawn) | > 100 µM | > 100 µM | > 100 µM | > 100 µM | > 100 µM | > 100 µM | > 100 µM | – | > 100 µM | > 100 µM | > 100 µM | > 100 µM | – | – | – | – | – | – | – | – |
| Nc1nc2c(c(=O)[nH]1)N(C=O)C(CNc1ccc(C(=O)N[C@@H](CCC(=O)O)C(=O)O)cc1)CN2 (stereo partly drawn) | > 125 µM | > 125 µM | > 125 µM | > 125 µM | > 125 µM | > 125 µM | > 125 µM | > 125 µM | > 125 µM | > 125 µM | > 125 µM | > 125 µM | – | – | – | – | – | – | – | – |
| CC(=O)[C@@H]1CCC=C2CC[C@]3(C)[C@@H](CC[C@@H]4[C@@]5(C)CCCNC(C)(C)[C@@H]5CC[C@]43C)[C@H]21 | – | 3.8 µM | 3.28 µM | 3.73 µM | – | 2.79 µM | 3.39 µM | 3.35 µM | – | – | 3.26 µM | 4.29 µM | 1.98 µM | 1.69 µM | 2.02 µM | 1.38 µM | 1.86 µM | 1.81 µM | 1.81 µM | 2.19 µM |
